What was measured:
[1] = Metabolic stability in human liver microsomes assessed as compound remaining at 1 uM incubated for 60 mins; type: ADME, Microsome; conditions: read-out: Stabilty
[2] = Metabolic stability in rat liver microsomes assessed as compound remaining at 1 uM incubated for 60 mins; type: ADME, Microsome; conditions: read-out: Stabilty
[3] = Solubility of the compound measured after 4 hrs by LC analysis; type: physicochemical
[4] = Apparent permeability across apical to basolateral side in human Caco2 cells incubated for 2 hrs by LC/MS/MS analysis; type: ADME, cell-based; conditions: Caco-2, read-out: permeability
[5] = Mean residence time in Sprague-Dawley rat at 0.3 mg/kg, iv measured up to 24 hrs by LC-MS/MS analysis; type: ADME, organism-based; conditions: in vivo
[6] = Total clearance in Sprague-Dawley rat at 0.3 mg/kg, iv measured up to 24 hrs by LC-MS/MS analysis; type: ADME, organism-based; conditions: in vivo
[7] = Volume of distribution at steady state in Sprague-Dawley rat at 0.3 mg/kg, iv measured up to 24 hrs by LC-MS/MS analysis; type: ADME, organism-based; conditions: in vivo, read-out: Vdss
[8] = AUC in mouse at 1 mg/kg, po by LC/MS analysis; type: ADME, organism-based; set-up: dose 1 mg/kg; conditions: in vivo
[9] = Half life in mouse at 1 mg/kg, po by LC/MS analysis; type: ADME, organism-based; conditions: in vivo
[10] = Oral bioavailability in mouse at 1 mg/kg by LC/MS analysis; type: ADME, organism-based; conditions: in vivo

Row | remaining at 1 h, 1 µM [1] [%] | remaining at 1 h, 1 µM [2] [%] | SMILES | further results
1 | 47 | 32 | COc1cn2ncc(-c3ccnc(OC4CC4)c3)c2nc1-c1cnn(C)c1 | 
2 | 35 | 61 | COc1cn2ncc(-c3ccnc(OC(C)(C)C)c3)c2nc1-c1cnn(C)c1 | 
3 | 43 | 56 | COc1cc(-c2cnn3cc(OC)c(-c4cnn(C)c4)nc23)ccn1 | 
4 | 74 | 84 | Cn1cc(-c2nc3c(-c4ccnc(OC5CC5)c4)cnn3cc2OCCC(C)(C)O)cn1 | solubility [3]: Soluble; Papp A→B at 2 h [4]: 1.4 ×10⁻⁶ cm/s; MRT [5]: 5.5 h; clearance [6]: 8.17 mL/min/kg; Vd [7]: 2.7 L/kg; AUC [8]: 2.3 µM·h; half-life [9]: 4.6 h; bioavailability [10]: 48%
5 | 54 | 64 | Cn1cc(-c2nc3c(-c4ccnc(OC5CC5)c4)cnn3cc2OCCCC(C)(C)O)cn1 | 
6 | 53 | 81 | Cn1cc(-c2nc3c(-c4ccnc(OC5CC5)c4)cnn3cc2OCC(C)(C)O)cn1 | 

The remaining lines, values behind:

Row | SMILES | remaining at 1 h, 1 µM [1] [%] | remaining at 1 h, 1 µM [2] [%] | further results
7 | COc1cc(-c2cnn3cc(OC)c(C(C)C)nc23)ccn1 | 40 | 14 | 
8 | COc1cc(-c2cnn3cc(OC)c([C@@H]4COC(C)(C)C4)nc23)ccn1 | 13 | 30 | 
9 | COc1cnc2c(-c3ccnc(OC)c3)cnn2c1 | 2 | 10 | 
10 | CNc1nc2c(-c3ccnc(OC)c3)cnn2cc1OC | 63 | 74 | 
11 | COc1cn2ncc(-c3ccnc(OC(C)C)c3)c2nc1-c1cnn(C)c1 | 32 | 50 | 
12 | COc1cc(-c2cnn3cc(OC)c(-c4cc(C)no4)nc23)ccn1 | 31 | 62 | 
13 | COc1cc(-c2cnn3cc(OC)c(C(C)(C)O)nc23)ccn1 | 66 | 92 | 
14 | COc1cc(-c2cnn3cc(OC)c(N(C)C)nc23)ccn1 | 16 | 3 | 
15 | COc1cc(-c2cnn3cc(OC)c(C4CCOC4)nc23)ccn1 (centres undefined) | 29 | 34 | 
16 | COc1cc(-c2cnn3cc(OC)c(C4CCCC4)nc23)ccn1 | 32 | 7 | 
17 | COc1cc(-c2cnn3cc(OC)c([C@H]4COC(C)(C)C4)nc23)ccn1 | 21 | 30 | 
18 | COc1cc(-c2cnn3cc(OC)c(C)nc23)ccn1 | 44 | 13 | 

— ChEMBL document CHEMBL4706744, “Discovery of Selective Transforming Growth Factor β Type II Receptor Inhibitors as Antifibrosis Agents” (ACS Med Chem Lett, 2021)
